Legend:
[1] = tested on: Pliss Lymphosarcoma resistant to leucoeffdine; test: Inhibition of growth of resistant tumour strains; tumor disappearance; type: in vivo, rats; details: leukofedin resistant Pliss' lymphosarcoma, collateral sensitivity
[2] = tested on: Pliss lymphosarcoma; test: Inhibition of tumor growth in implanted tumors; type: in vivo, rats
[3] = tested on: Worker's carcinosarcoma; test: Inhibition of tumor growth in implanted tumors; type: in vivo, mice and rats
[4] = tested on: Geren's carcinosarcoma; test: Inhibition of tumor growth in implanted tumors; type: in vivo, mice and rats
[5] = tested on: Sarcoma-45; test: Inhibition of tumor growth in implanted tumors; type: in vivo, rats
[6] = tested on: Alveolar Cancer of the liver; test: Inhibition of tumor growth in implanted tumors; type: in vivo, mice and rats
[7] = tested on: Leucemia P-388; test: Implanted leukemia, inhibition / survival; type: in vivo, mice and rats; details: for Inhibition of Tumour Growth, % - Leucemia P-388 PALT: dose 50 mg/kg
[8] = tested on: Sarcoma-45 resistant to 5-fluorouracil; test: Inhibition of growth of resistant tumour strains; type: in vivo, rats; details: dose 50 mg/kg
[9] = tested on: M-1 Sarcoma; test: Inhibition of tumor growth in implanted tumors; type: in vivo, mice and rats; details: dose 30 mg/kg
[10] = tested on: PC-1; test: Inhibition of tumor growth in implanted tumors; type: in vivo, mice and rats; details: dose 30 mg/kg
[11] = tested on: L-1210; test: Implanted leukemia, survival; type: in vivo, mice and rats; details: dose 30 mg/kg
[12] = tested on: Sarcoma-45 resistant to sarcolysin; test: Inhibition of growth of resistant tumour strains; type: in vivo, rats; details: dose 30 mg/kg
[13] = tested on: Pliss Lymphosarcoma resistant to rubidomycin; test: Inhibition of growth of resistant tumour strains; type: in vivo, rats; details: dose 30 mg/kg
[14] = tested on: Pliss Lymphosarcoma resistant to prospidine; test: Inhibition of growth of resistant tumour strains; duration of life and metastasis; type: in vivo, rats; details: dose 30 mg/kg
[15] = tested on: immune system; test: Indices of patients' immunity, rozette forming and phagocytosis methods (Table X); type: in vivo, human
Method: The indices of immune system were determined using rozette forming and phagocytosis methods. […] Eleven indices of cellular and humoral immunity were measured from each patient in order to evaluate immune status. The following indices were determined on 0.05 ml of peripheral blood: absolute and relative amount of T- and B-lymphocytes, amount of non-differentiated “zero” cells, adhesion and phagocyte activity of neutrophils, hemogram, level of serum immunoglobulins. Indices were determined before treatment, on days 2, 5 and 14 of treatment, and after treatment.
Mean values of immunological indices were evaluated with regression analysis. Functional conditions of the immune system were estimated using integral indices such as a mean intensity (correlation) expressed in relative units.

NC(Cc1ccc(N(CCCl)CCCl)cc1)C(=O)O (centres unmarked) [sarcolysin, reference compound]
rats with complete disappearance of the tumor [1]: 60%

CN(C)CC1C(=O)OC2C1CCC1(C)OC13CC1OC1(C)C23.Cl (centres unmarked) [dimethylaminoepoxyarglabin hydrochloride]
Inhibition of Tumour Growth, % - Pliss lymphosarcoma ([2]; dose 50 mg/kg): 47.0% | Inhibition of Tumour Growth, % - Worker's carcinosarcoma ([3]; dose 50 mg/kg): 51.4% | Inhibition of Tumour Growth, % - Geren's carcinosarcoma ([4]; dose 50 mg/kg): 15.6% | Inhibition of Tumour Growth, % - Sarcoma-45 ([5]; dose 50 mg/kg): 32.4% | Inhibition of Tumour Growth, % - Alveolar Cancer of the liver ([6]; dose 50 mg/kg): 29.1% | Inhibition of Tumour Growth, % - Leucemia P-388 PALT [7]: 31.2% | Inhibition of Tumour Strains Growth, % - Resistant Forms - Sarcoma-45 to 5-fluorouracil [8]: 13.2%

C=C1C(=O)OC2C1CCC(C)(Cl)C1(O)CC(Cl)C(C)(O)C21 (centres unmarked) [Dichlordihydroxyarglabin (3)]
Inhibition of Tumour Growth, % - Pliss lymphosarcoma ([2]; dose 50 mg/kg): 29.0% | Inhibition of Tumour Growth, % - Worker's carcinosarcoma ([3]; dose 50 mg/kg): 63.2% | Inhibition of Tumour Growth, % - Geren's carcinosarcoma ([4]; dose 50 mg/kg): 71.4% | Inhibition of Tumour Growth, % - Sarcoma-45 ([5]; dose 50 mg/kg): 70.9% | Inhibition of Tumour Growth, % - Alveolar Cancer of the liver ([6]; dose 50 mg/kg): 51.0% | Inhibition of Tumour Growth, % - Leucemia P-388 PALT [7]: 92.1% | Inhibition of Tumour Strains Growth, % - Resistant Forms - Sarcoma-45 to 5-fluorouracil [8]: 70.6%

CN(C)CC1C(=O)OC2C1CCC1(C)OC13CC1OC1(C)C23 (centres unmarked) [Dimethylaminoepoxyarglabin (15b), dimethylaminoepoxyarglabin]
Inhibition of Tumour Growth, % - Pliss lymphosarcoma ([2]; dose 50 mg/kg): 64.6% | Inhibition of Tumour Growth, % - Worker's carcinosarcoma ([3]; dose 50 mg/kg): 43.1% | Inhibition of Tumour Growth, % - Geren's carcinosarcoma ([4]; dose 50 mg/kg): 31.4% | Inhibition of Tumour Growth, % - Sarcoma-45 ([5]; dose 50 mg/kg): 58.1% | Inhibition of Tumour Growth, % - Alveolar Cancer of the liver ([6]; dose 50 mg/kg): 38.0% | Inhibition of Tumour Growth, % - Leucemia P-388 PALT [7]: 51.0% | Inhibition of Tumour Strains Growth, % - Resistant Forms - Sarcoma-45 to 5-fluorouracil [8]: 11.2%

C=C1C(=O)O[C@@H]2[C@H]3C(C)=CC[C@@]34O[C@@]4(C)CC[C@@H]12 [Arglabin (1), 1(R), 10(S)-epoxy-5(S), 6(S), 7(S)-guaia-3(4), 11(13)-diene-6,12-olide]
Inhibition of Tumour Growth, % - Pliss lymphosarcoma ([2]; dose 30 mg/kg): 57.6% | Inhibition of Tumour Growth, % - Worker's carcinosarcoma ([3]; dose 30 mg/kg): 41.1% | Inhibition of Tumour Growth, % - Geren's carcinosarcoma ([4]; dose 30 mg/kg): 48.0% | Inhibition of Tumour Growth, % - Sarcoma-45 ([5]; dose 30 mg/kg): 23.0% | Inhibition of Tumour Growth, % - M-1 Sarcoma [9]: 55.6% | Inhibition of Tumour Growth, % - Alveolar Cancer of the liver ([6]; dose 30 mg/kg): 32.1% | Leucemia P-388 PALT - increase in survival ([7]; dose 30 mg/kg): +43.0% | Inhibition of Tumour Growth, % - PC-1 [10]: 32.1% | L-1210 - increase in survival [11]: +34.1% | Inhibition of Tumour Strains Growth, % - Resistant Forms - Sarcoma-45 to sarcolysin [12]: 59.7% | Inhibition of Tumour Strains Growth, % - Resistant Forms - Pliss Lymphosarcoma to rubidomycin [13]: 44.1% | Inhibition of Tumour Strains Growth, % - Resistant Forms - Pliss Lymphosarcoma to prospidine [14]: 31.0% | Adhesion, N/ph ([15]; human, in vivo): 42.40 ± 1.72 | Non differentiated lymphocytes, % ([15]; human, in vivo): 26.00 ± 2.21% | T-lymphocytes, % ([15]; human, in vivo): 52.00 ± 1.42% | Eosinophil ([15]; patients, hemogram, after treatment (before treatment 2.72 ± 0.71)): 3.35 ± 1.30 | Neutrophils, % ([15]; patients, hemogram, after treatment (before treatment 4.72 ± 0.91)): 5.45 ± 0.79% | Monocytes ([15]; patients, hemogram, after treatment (before treatment 5.28 ± 2.48)): 4.45 ± 0.44 | Lymphocytes ([15]; patients, hemogram, after treatment (before treatment 25.52 ± 2.02)): 23.15 ± 1.7 | Segmentation nucleus ([15]; patients, hemogram, after treatment (before treatment 61.68 ± 45.0)): 63.05 ± 1.79 | B-lymphocytes, absolute ([15]; patients, peripheral blood, after treatment (before treatment 0.29 ± 0.05)): 0.45 ± 0.07 | T-lymphocytes, absolute ([15]; patients, peripheral blood, after treatment (before treatment 0.72 ± 0.08)): 1.14 ± 0.17 | D-phag, abs ([15]; patients, peripheral blood, after treatment (before treatment 1.69 ± 0.26)): 2.32 ± 0.19 | Leukocytes, 10^9/l ([15]; patients, peripheral blood, after treatment (before treatment 5.97 ± 0.60)): 9.14 ± 0.61 10^9/l | T suppressor, % ([15]; patients, peripheral blood, after treatment (before treatment 10.48 ± 1.60)): 10.50 ± 0.95% | B-lymphocytes, % ([15]; patients, peripheral blood, after treatment (before treatment 19.12 ± 1.02)): 18.50 ± 10.0% | T helper cells, % ([15]; patients, peripheral blood, after treatment (before treatment 39.12 ± 1.25)): 45.30 ± 1.26% | D-phag., % ([15]; patients, peripheral blood, after treatment (before treatment 41.36 ± 0.95)): 48.1 ± 0.93% | Immunoglobulins M ([15]; patients, serum, after treatment (before treatment 1.36 ± 0.03)): 1.53 ± 0.03 g/L | Immunoglobulins A ([15]; patients, serum, after treatment (before treatment 1.48 ± 0.02)): 1.97 ± 0.08 g/L | Immunoglobulins G ([15]; patients, serum, after treatment (before treatment 14.33 ± 0.43)): 17.91 ± 0.41 g/L

Reference: US6770673B1, “Therapeutic uses of arglabin in combination with other chemotherapy agents” (priority 1997, dated 2004)
